Laboratory results: US9200017B2, “Multimodal imaging of fibrin” (The General Hospital Corporation, priority 2009, dated 2015)

Biological target: T1, Thrombus (Rattus norvegicus, UniProt P02680+P06399+P14480)
T1 construct: thrombin cleaves fibrinopeptides on fibrinogen resulting in an end-to-end polymerization to give the polymer fibrin; A day old autologous blood clot was injected into the right internal carotid artery; from tissue; host or cells: autologous blood clot in the right internal carotid artery of Wistar rats
T1 sequence (P06399 37-550 isoform P06399-2 limits assumed): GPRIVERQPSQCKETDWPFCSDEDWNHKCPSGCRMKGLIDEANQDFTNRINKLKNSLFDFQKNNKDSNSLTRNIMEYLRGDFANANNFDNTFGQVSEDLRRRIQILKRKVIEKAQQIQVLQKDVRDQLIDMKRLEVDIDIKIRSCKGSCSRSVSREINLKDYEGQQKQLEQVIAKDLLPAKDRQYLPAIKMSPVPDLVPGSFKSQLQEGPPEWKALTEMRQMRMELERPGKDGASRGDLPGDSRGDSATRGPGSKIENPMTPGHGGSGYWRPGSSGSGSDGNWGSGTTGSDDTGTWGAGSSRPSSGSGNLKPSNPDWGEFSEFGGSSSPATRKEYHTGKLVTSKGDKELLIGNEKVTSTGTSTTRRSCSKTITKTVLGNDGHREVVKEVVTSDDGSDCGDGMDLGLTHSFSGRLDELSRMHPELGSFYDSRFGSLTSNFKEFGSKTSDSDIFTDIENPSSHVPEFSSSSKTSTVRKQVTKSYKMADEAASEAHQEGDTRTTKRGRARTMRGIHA
T1 sequence (P14480 33-479 limits assumed): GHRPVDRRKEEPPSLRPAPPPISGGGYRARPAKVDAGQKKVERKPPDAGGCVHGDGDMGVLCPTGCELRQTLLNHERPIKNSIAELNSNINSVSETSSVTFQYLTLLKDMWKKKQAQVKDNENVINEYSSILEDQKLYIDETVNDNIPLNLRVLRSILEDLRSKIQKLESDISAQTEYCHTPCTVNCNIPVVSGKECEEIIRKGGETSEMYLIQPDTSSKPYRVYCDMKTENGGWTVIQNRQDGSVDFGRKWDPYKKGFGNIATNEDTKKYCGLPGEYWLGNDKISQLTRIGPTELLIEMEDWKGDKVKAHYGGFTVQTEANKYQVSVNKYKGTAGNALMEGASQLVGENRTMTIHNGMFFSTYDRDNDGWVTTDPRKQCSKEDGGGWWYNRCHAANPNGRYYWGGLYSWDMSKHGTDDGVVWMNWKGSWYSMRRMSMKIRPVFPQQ
T1 sequence (P02680 26-437 isoform P02680-2 limits assumed): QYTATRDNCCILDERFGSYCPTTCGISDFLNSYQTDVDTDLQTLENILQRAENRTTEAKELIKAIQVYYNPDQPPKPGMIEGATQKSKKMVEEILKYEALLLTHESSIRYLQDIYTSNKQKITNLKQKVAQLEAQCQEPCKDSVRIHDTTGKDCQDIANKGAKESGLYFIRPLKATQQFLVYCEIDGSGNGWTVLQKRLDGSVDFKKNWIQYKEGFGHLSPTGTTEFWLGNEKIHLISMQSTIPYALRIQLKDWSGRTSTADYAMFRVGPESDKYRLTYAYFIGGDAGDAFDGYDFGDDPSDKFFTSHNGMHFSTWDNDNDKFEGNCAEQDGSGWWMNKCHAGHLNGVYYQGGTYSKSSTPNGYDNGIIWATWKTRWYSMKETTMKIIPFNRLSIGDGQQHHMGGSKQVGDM
Assay: MR-PET imaging of occlusive thrombus in right internal carotid artery of rats
Format: in vivo
Settings: for PET time-activity curve in thrombus: over 90 min, contralateral vessel signal decays with time; for Thrombus visibility on black-blood T1-weighted MR post injection: six animals imaged
Description: All animal studies were approved by the Subcommittee on Research Animal Care at Massachusetts General Hospital. The occlusive thrombus model was described previously (Zhang R L, Chopp M, Zhang Z G, Jiang Q, and Ewing J R., Brain Res. 1997 766(1-2):83-92). Briefly, male Wistar rats (350-400 g, n=8; Charles River Laboratories, Wilmington, Mass.) were anaesthetized with isoflurane (1-2% in 70% N2O and 30% O2) and body temperature was kept at 37.5° C. A day old autologous blood clot was injected into the right internal carotid artery (ICA) at the level of the middle cerebral artery (MCA). The femoral vein was cannulated for intravenous delivery of the contrast agent. Simultaneous PET and MR were acquired on a clinical 3T MRI-BrainPET scanner using a home-built receive surface coil and a CP transmit coil. After baseline MR scans were acquired, the dual MR-PET probe was injected at a dose of 11.5 μmol/kg (46 μmol Gd/kg, total activity=19.6±5.9 MBq). The animals were sacrificed 2 h post-injection. In total, six animals underwent imaging while in two additional animals only biodistribution data was collected.
The list-mode emission data from PET were rebinned in the sinogram space for fast reconstruction. The uncorrected PET volume was first reconstructed and binary segmented based on an empirically determined threshold in soft tissue and air. A uniform linear attenuation coefficient (0.096 cm^−1, corresponding to water at 511 keV) was assigned to all soft tissue voxels and the resulting attenuation map (combined with the coil attenuation map) was forward projected to derive the attenuation correction factors in sinogram space. A model-based approach was used to derive the scatter sinogram. The normalization was calculated from a 64 hr scan of a plane-source rotated in the FOV. The images were reconstructed with the ordinary Poisson ordered subsets expectation maximization (OP-OSEM) algorithm using 16 subsets and 6 iterations. The reconstructed volume consists of 153 slices with 256×256 pixels (1.25×1.25×1.25 mm^3). The spatial resolution at the center of the field of view is approximately 2.5 mm.
The emission data were recorded in list-mode format for approximately 90 min (9×10 min frames) after MR-PET probe administration. The data acquired in each individual frame were processed and images were reconstructed after acquisition for immediate analysis. Images were also reconstructed from the data acquired 30-90 minutes post injection. Additionally, thirty 3-minute frames were generated and the tracer uptake in structures of interest as a function of time was analyzed.
The MR imaging sequence included MP-RAGE and 3D T1-weighted gradient echo scans with and without inflow saturation. The latter were used for time of flight (TOF) angiography. The field of view scanned for the 3D sequences was 85×85 mm^2, with repetition time (TR), echo time (TE), and flip angle of 32 ms, 5.78 ms and 18°, respectively. […] For the MP-RAGE, the parameters used were inversion time TI=900 ms, TR/TE=2300/4.4, NEX=1, FOV=49×49 mm^2, matrix=192×192, slice thickness=0.26 mm for resolution=0.26 mm^3.
MR images were analyzed using OsiriX (www.osirix-viewer.com) by drawing regions of interest (ROI) in the thrombus, contralateral artery and adjacent tissue and quantifying signal intensity (SI). Noise was quantified as the standard deviation (SD) of the signal measured in the air outside the animal. Contrast to noise ratios (CNR) were calculated for the difference between tissue A and tissue B using the following equation (1). CNR(tissue A/tissue B)=[SI(tissue A)−SI(tissue B)]/SD(air) (1)
Signal intensity ratios (SIR) between the thrombus (ipsilateral) and contralateral vessel were calculated using equation (2) for images pre- and 10 min post-probe administration. SIR=[SI(ipsilateral)/SI(contralateral)]post/[SI(ipsilateral)/SI(contralateral)]pre (2) […]

## Gd3-EP-2104R-Cu [Compound 21]
black-blood MR, 11.5 μmol/kg i.v., pre-injection −2.0±2.2, p<0.005
  CNRthrombus:brain post probe: 13.0±2.0
Hyperintense lesion vs identical contralateral volume of interest, p<0.01
  PET SIRipsi:contra: 1.85±0.48
  PET time-activity curve in thrombus: rapid and static uptake in the thrombus
  Thrombus visibility on black-blood T1-weighted MR post injection: now bright indicating the presence of thrombus
Listed as Gd3-EP-2104R-^64Cu
  PET time-activity curve in thrombus: activity remains approximately constant over 90 min
  Thrombus visibility on black-blood T1-weighted MR post injection: clearly visible
Thrombus vs contralateral vessel, pre and 10 min post probe, p<0.01
  MR SIRpost/SIRpre: 1.71±0.35
